{
  "source": "patent US4448785A",
  "about": "“N-Unsaturated fatty acid amides of tryptophan ester homologues and anti-cholesteric use thereof” (Sandoz, Inc., priority 1982, dated 1984)",
  "key": {"Fu5AH rat hepatoma cells": {"system": "Fu5AH rat hepatoma cells", "experiment": "Inhibition of cholesterol ester accumulation in Fu5AH cells", "format": "cell-based", "set-up": "Visual (in comparison to results with compound of Example 2a) / % Inhibition of cholesterol ester accumulation: unit of the concentration uncertain", "details": "for inhibition at 10 µg/mL: Rattus norvegicus", "from_the_text": "For testing a 75 cm^2 flask with a near confluent cell growth is selected. The cells are removed from the flask surface by mild enzymatic treatment with pronase. After centrifugation and decanting the enzyme solution, the cell pellet is resuspended in an appropriate volume of media for seeding the desired number of 60 mm tissue culture dishes. Five (5) ml of the diluted cell suspension are pipetted into each dish. After seeding, the dishes are labelled with the cell type, date and flask number of origin and incubated at 37° C. in approximately 5% CO2 atmosphere in a high humidity incubator. When the cultures are confluent, the actual drug testing is begun. Test compounds are routinely solubilized in 100% ethanol. An equivalent amount of ethanol is added to control groups as well. The tissue culture dishes are randomly divided into groups. To one group, hyperlipemic rabbit serum (HRS) is added at 5% by volume (control). […] The dishes are returned to the incubator for an additional 24 hours. All operations through to the final incubation are performed using sterile technique in a laminar flow hood. After the incubation period, the dishes are microscopically observed with the Zeiss Axiomat with phase contrast optics and the conditions of the cultures are recorded; especially in regard to the size, number and configuration of cytoplasmic inclusions and to cellular morphology. The media is removed from the cultures and 0.9% sodium chloride solution is added. The cells are removed from the flasks with the aid of a rubber policeman and transferred to a conical graduated centrifuge tube. The cells are washed three times by suspending in an isotonic salt solution, centrifuging at 800× g for 10 minutes and aspirating the supernatant fluid.\n(§1) An appropriate volume of isopropyl alcohol (about 1 ml/mg protein) is then added to the cell pellet and the sample sonicated with a micro probe (140×3 mm) for 10 seconds with a \"LO\" setting of 50 on a Bronwell Biosonik IV. After centrifugation for 15 minutes at 800× g, the clear supernatant is decanted and an aliquot taken for cholesterol analysis.\nAn aliquot of 0.4 ml of free reagent (Reagent A, Table 1 below) is added to a 10×75 mm disposable glass test tube to which 20 μl of the isopropyl alcoholic solution is added and mixed. After standing at room temperature for approximately 5 minutes, 0.8 ml of 0.5 N sodium hydroxide (Reagent C, Table 1) is added and mixed. The fluorescence is measured with an Aminco-Bowman spectrophotofluorometer with an excitation wavelength of 325 nm and emission wavelength of 415 nm. A 1 cm light path cuvette is used with a xenon lamp, an IP28 photomultiplier tube and 2 mm slits.\nTotal cholesterol: The same procedure described above for free cholesterol is followed for total cholesterol except that the total reagent (Reagent B, Table 1) is used instead of the free reagent and the samples are incubated for 20 minutes at 37° C. before the addition of the 0.5 N sodium hydroxide solution (Reagent C, Table 1).\nThe amount of cholesterol ester is found by subtracting the amount of free cholesterol from the total cholesterol content of the cells determined by the assay."}, "cholesterol absorption": {"system": "cholesterol absorption", "experiment": "Zilversmit test, cholesterol absorption in the cholesterol fed rabbit", "format": "in vivo, Male New Zealand rabbits", "details": "three days, n = 4", "method": "The Zilversmit test is carried out as follows:\nCholesterol-1-2-^3 H and cholesterol-4-^14 C were obtained from New England Nuclear. They were purified by high pressure liquid chromatography (Beckman Model 332) using a reverse phase ultrasphere O.D.S. 25 cm×4.5 mm I.D. column with the following solvent system:\nThe flow rate was 1 ml/min. Detection was made at 206 nm using a Model 155-40 UV-Vis detector (Beckman). The radioactive cholesterol solution in benzene was evaporated to dryness, taken up in isopropyl alcohol and injected into the HPLC in five 20 μl aliguots. Cholesterol fractions were collected, pooled and evaporated to dryness. The purified fraction was rechromatographed under the same conditions to confirm purity.\nThe HPLC-purified cholesterol-1-2-^3 H was dissolved in corn oil (M.C.B.U.S.P.). The corn oil solution was added to 6.8% skim milk in a ratio of 1:4. This mixture was homogenized by sonicating with a Bronwell Biosonik IV sonicator using a microprobe at a \"Lo\" setting of 50 until a homogenous suspension was formed. […]\nThe radioactivity was determined by liquid scintillation counting in either a Packard 3320 Liquid Scintillation Spectrometer or a Beckman Model LS8000. […]\nThe combined efficiency of the oxidizer and liquid scintillation counter was determined for each isotope from standards of known specific activity. […]"}, "[1]": {"system": "monkey aortic smooth muscle cells", "experiment": "Cell culture cholesterol ester test, monkey aortic smooth muscle cells (Table 2)", "format": "cell-based, Rhesus monkey", "details": "5% HRS", "from_the_text": "The compounds of formula I of this invention are useful as pharmaceutical agents in animals. In particular, the compounds of the formula I are useful in controlling the cholesterol ester content of mammalian arterial walls and are therefore particularly indicated for use as anti-atherosclerotic agents, ie. agents useful in the prophylactic treatment of atherosclerosis and in the controlling of atherosclerotic conditions due to cholesterol ester accumulation in the arterial walls. Such ability of the compounds of the formula I is indicated e.g., by known test procedures in which the total cholesterol ester content of cultured cells is shown to be reduced by a test compound, as compared to untreated cells, and carried out, for example, by the following procedures:\nRhesus monkey smooth muscle cells (from the arterial, eg aorta wall) obtained by the method of K. Fisher-Dzoga et al (Experimental and Molecular Pathology 18, 162-176 (1973)) are routinely grown in 75 cm^2 tissue culture flasks using Minimum Essential Medium (Eagle) supplemented with 10% fetal bovine serum. For testing a 75 cm^2 flask with a near confluent cell growth is selected. The cells are removed from the flask surface by mild enzymatic treatment with pronase. After centrifugation and decanting the enzyme solution, the cell pellet is resuspended in an appropriate volume of media for seeding the desired number of 60 mm tissue culture dishes. Five (5) ml of the diluted cell suspension are pipetted into each dish. After seeding, the dishes are labelled with the cell type, date and flask number of origin and incubated at 37° C. in approximately 5% CO2 atmosphere in a high humidity incubator. When the cultures are confluent, the actual drug testing is begun. Test compounds are routinely solubilized in 100% ethanol. An equivalent amount of ethanol is added to control groups as well. The tissue culture dishes are randomly divided into groups. To one group, hyperlipemic rabbit serum (HRS) is added at 5% by volume (control). To the remaining groups, 5% HRS and 1 mg per 100 ml of media of the test compound are added. The dishes are returned to the incubator for an additional 24 hours. All operations through to the final incubation are performed using sterile technique in a laminar flow hood. After the incubation period, the dishes are microscopically observed with the Zeiss Axiomat with phase contrast optics and the conditions of the cultures are recorded; especially in regard to the size, number and configuration of cytoplasmic inclusions and to cellular morphology. The media is removed from the cultures and 0.9% sodium chloride solution is added. The cells are removed from the flasks with the aid of a rubber policeman and transferred to a conical graduated centrifuge tube. The cells are washed three times by suspending in an isotonic salt solution, centrifuging at 800× g for 10 minutes and aspirating the supernatant fluid.\nas §1\nThe residue is dissolved in 0.1 N sodium hydroxide and an aliquot taken for protein determination by the method of Lowry, et al. (J. Biol. Chem. 193, 265; 1951). […]"}, "[2]": {"system": "serum cholesterol and cholesterol ester levels", "experiment": "Oral administration to rabbits with high cholesterol diet, serum cholesterol and arterial plaques", "format": "in vivo", "details": "oral 200 mg/kg per day for 9 weeks, compared to controls"}, "[3]": {"details": "Dose 10 (unit uncertain) as printed"}, "[4]": {"details": "Dose 10 as printed, Control = 0.17"}, "[5]": {"details": "1 mg test compound per 100 ml of media, 24 hours, listed as A"}},
  "note": "Where “and” joins values, the source holds several entries; their conditions need not be identical. Identical values can stand only once.",
  "data": [
    {"compound": "CCCCC/C=C\\C/C=C\\CCCCCCCC(=O)NC(Cc1c[nH]c2ccccc12)C(=O)OCc1ccccc1", "note": "(centres unmarked) [Example 4d]", "values": [
      {"measurement": "Visual (in comparison to results with compound of Example 2a)", "setting": "Fu5AH rat hepatoma cells; [3]", "value": "About same"}
    ]},
    {"compound": "CCCCCCCC/C=C\\CCCCCCCC(=O)NC(Cc1cn(C)c2ccccc12)C(=O)OCC", "note": "(centres unmarked) [Example 3a, 2-(1-oxo-9-octadecenylamino)-3-(1-methylindolyl)-propanoic acid, ethyl ester]", "values": [
      {"measurement": "F/T", "setting": "Fu5AH rat hepatoma cells; [4]", "value": 0.52}
    ]},
    {"compound": "CCCCC/C=C\\C/C=C\\CCCCCCCC(=O)NC(Cc1c[nH]c2ccccc12)C(=O)OCC", "note": "(stereo not drawn) [Example 1, α-[(1-Oxo-9,12-oxtadecadienylamino)]1H-Indole-3-Propanoic acid, Ethyl Ester(cis, cis isomer)]", "values": [
      {"measurement": "Visual (in comparison to results with compound of Example 2a)", "setting": "Fu5AH rat hepatoma cells; [3]", "value": "About same"},
      {"measurement": "% Inhibition of cholesterol ester accumulation", "setting": "Fu5AH rat hepatoma cells; Dose 10 (unit uncertain) as printed, Table 6", "value": 59, "unit": "%"},
      {"measurement": "inhibition at 10 µg/mL", "setting": "Fu5AH rat hepatoma cells; Table 6", "value": 69, "unit": "%"}
    ]},
    {"compound": "CCCCC/C=C\\C/C=C\\CCCCCCCC(=O)NC(Cc1c[nH]c2ccccc12)C(=O)OCCCCCCCC", "note": "(centres unmarked) [Example 4c]", "values": [
      {"measurement": "Visual (in comparison to results with compound of Example 2a)", "setting": "Fu5AH rat hepatoma cells; Dose 5 (unit uncertain) as printed", "value": "Weaker"},
      {"measurement": "F/T", "setting": "Fu5AH rat hepatoma cells; Dose 5 as printed, Control = 0.19", "value": 0.22}
    ]},
    {"compound": "CCCCCCCC/C=C\\CCCCCCCC(=O)NC(Cc1c[nH]c2ccc(OC)cc12)C(=O)OCC", "note": "(centres unmarked) [Example 3b, 2-(1-oxo-9-octadecenylamino)-3-(1H-5-methoxyindolyl)-propanoic acid, ethyl ester]", "values": [
      {"measurement": "Visual (in comparison to results with compound of Example 2a)", "setting": "Fu5AH rat hepatoma cells; [3]", "value": "About same"},
      {"measurement": "F/T", "setting": "Fu5AH rat hepatoma cells; [4]", "value": 0.45}
    ]},
    {"compound": "CCCCCCCC/C=C\\CCCCCCCC(=O)NC(Cc1c[nH]c2ccccc12)C(=O)OCC", "note": "(single isomer, unassigned) [Example 2a, α-[(1-oxo-9-octadecenylamino)]-1H-indole-3-propanoic acid, ethyl ester (cis isomer)]", "values": [
      {"measurement": "Cholesterol Free", "setting": "Fu5AH rat hepatoma cells; 10 μg/ml, 5% HRS, Mean ± SEM, p < .01 vs Hyperlipemic Control 40.7 ± 0.6", "value": "76.8 ± 6.5", "unit": "μg/mg Cell Protein"},
      {"measurement": "Cholesterol Ester", "setting": "Fu5AH rat hepatoma cells; 10 μg/ml, 5% HRS, Mean ± SEM, p < .01 vs Hyperlipemic Control 152.5 ± 2.3", "value": "40.6 ± 1.3", "unit": "μg/mg Cell Protein"},
      {"measurement": "Cholesterol Total", "setting": "Fu5AH rat hepatoma cells; 10 μg/ml, 5% HRS, Mean ± SEM, p < .01 vs Hyperlipemic Control 193.0 ± 2.9", "value": "117.4 ± 5.2", "unit": "μg/mg Cell Protein"},
      {"measurement": "% inh (cholesterol ester accumulation)", "setting": "Fu5AH rat hepatoma cells; 10 μg/ml, Table 5", "value": 73, "unit": "%"},
      {"measurement": "inhibition of cholesterol accumulation by cells", "setting": "Fu5AH rat hepatoma cells; Fu5AH cells", "value": "marked inhibition of cholesterol accumulation"},
      {"measurement": "F/T", "setting": "Fu5AH rat hepatoma cells; calculated from Table 5 (10 μg/ml), hyperlipemic control = 0.21", "value": 0.65},
      {"measurement": "Percent Cholesterol Absorption", "setting": "cholesterol absorption; 200 mg/kg by gavage, ± S.E.M., control 43.0 ± 2.03", "value": "20.0 ± 1.43", "unit": "%"},
      {"measurement": "Percent Cholesterol Absorption", "setting": "cholesterol absorption; 500 mg/kg by gavage, Mean ± S.E.M., control 41.0 ± 3.3", "value": "11.2 ± 1.1", "unit": "%"},
      {"measurement": "Cholesterol Free", "setting": "[1]; [5]", "value": "50.4 μg/mg cell protein and 54.4 μg/mg cell protein"},
      {"measurement": "Cholesterol Total", "setting": "[1]; [5]", "value": "57.4 μg/mg cell protein and 60.3 μg/mg cell protein"},
      {"measurement": "Cholesterol Ester Amount", "setting": "[1]; 1 mg test compound per 100 ml of media, 24 hours, single culture, controls 23.1 and 21.4, listed as A", "value": "7.0 μg/mg cell protein and 5.9 μg/mg cell protein"},
      {"measurement": "Cholesterol Ester Percent from control", "setting": "[1]; decrease, significant at P less than 0.01, 1 mg per 100 ml of media", "value": 71.0, "unit": "%"},
      {"measurement": "Cholesterol Ester mean", "setting": "[1]; mean of two cultures, 1 mg per 100 ml of media, control mean 22.3", "value": 6.5, "unit": "μg/mg cell protein"},
      {"measurement": "arterial wall plaques", "setting": "[2]", "value": "lessened formation or absence of arterial wall plaques"},
      {"measurement": "cholesterol and cholesterol ester serum levels", "setting": "[2]", "value": "reduction in cholesterol and cholesterol ester serum levels"}
    ]},
    {"compound": "CCCCCCCC/C=C\\CCCCCCCC(=O)NC(Cc1c[nH]c2ccc(F)cc12)C(=O)OCC", "note": "(centres unmarked) [Example 3e, 2-(1-oxo-9-octadecenylamino)-3-(1H-5 fluoroindolyl)-propanoic acid, ethyl ester]", "values": [
      {"measurement": "Visual (in comparison to results with compound of Example 2a)", "setting": "Fu5AH rat hepatoma cells; [3]", "value": "About same"},
      {"measurement": "inhibition at 10 µg/mL", "setting": "Fu5AH rat hepatoma cells; Table 6", "value": 39, "unit": "%"}
    ]}
  ]
}
